Reference: patent US8124760B2, “Pyridyl-triazolopyrimidine derivative or its salt, pesticide containing it and its production process” (Ishihara Sangyo Kaisha, Ltd., priority 2007, dated 2012)
Where two headings read alike, the source gives them in different places.

Key:
Format in all cases: in vivo
[1] = tested on: Brown Planthopper (Nilaparvata lugens); test: Test on controlling effects against brown planthopper (rice seedling dip)
Source text: Test on Controlling Effects Against Brown Planthopper (Nilaparvata lugens)
Rice seedling was dipped for about 10 seconds in an insecticidal solution prepared to bring the concentration of the compound of the present invention to 200 ppm and then dried in air, its root was wrapped with a wet absorbent cotton, and the seedling was put into a test tube. Then, 10 second-third instar nymphs of Brown Planthopper were released therein, and the test tube was covered with a gauze and left in a constant temperature chamber at 25° C. with lightening. On the 5th day after the release, dead nymphs were counted, and the mortality was calculated by the following equation.

[2] = tested on: Silverleaf Whitefly (Bemisia Argentifolii); test: Test on controlling effects against silverleaf whitefly (cucumber seedling spray); conditions: 168 h, hand spray to cucumber seedling, first-second instar nymphs, 7 days after the treatment, 25° C., read-out: protective value
Protocol: Test on Controlling Effects Against Silverleaf Whitefly (Bemisia Argentifolii) An insecticidal solution prepared to bring the concentration of the compound of the present invention to 200 ppm was applied by a hand spray to cucumber seedling planted in a pot on which first-second instar nymphs of silverleaf whitefly were parasitic, and dried in air. Thereafter, the cucumber seedling was left in a constant temperature chamber at 25° C. with lightening. The number of old instar nymphs was counted 7 days after the treatment, and the protective value (%) was obtained by the following equation. […] Protective value (%)=(1−((Ta×Cb)/(Tb×Ca)))×100 Ta: The number of old instar nymphs after the treatment at the treated cucumber seedling Tb: The number of first-second instar nymphs before the treatment at the treated cucumber seedling Ca: The number of old instar nymphs after the treatment at the untreated cucumber seedling Cb: the number of first-second instar nymphs before the treatment at the untreated cucumber seedling

[3] = tested on: Green Peach Aphid (Myzus persicae); test: Test on controlling effects against green peach aphid (leaf dip); conditions: foliar, 120 h, Japanese radish leaf dipped about 10 seconds, first instar nymphs, 5 days after the treatment, 25° C.
Source text: Test on Controlling Effects Against Green Peach Aphid (Myzus persicae)
A Japanese radish leaf was inserted in a test tube in which water was put, and about 20 first instar nymphs of green peach aphid were released on the leaf. On the next day, the number of nymphs parasitic on the leaf was counted, and then the leaf was dipped for about 10 seconds in an insecticidal solution prepared to bring the concentration of the compound of the present invention to 200 ppm, dried in air and left in a constant temperature chamber at 25° C. with lightening. Dead nymphs were counted 5 days after the treatment, and the mortality was calculated by the following equation. The insects dropped from the leaf or presented toxic symptom were counted as dead insects. […] Mortality (%)=(1−(number of survived insects/number of treated insects))×100

[4] = 200 ppm, rice seedling dipped about 10 seconds, second-third instar nymphs, 5th day after the release, 25° C., read-out: mortality

Cc1cc(-c2nc(Cl)c(C(F)(F)F)cc2F)n2ncnc2n1 [compound 105]
mortality at 200 ppm [1, 4]: ≥ 90%

FC(F)(F)c1cnc(-c2cc(C3CC3)nc3ncnn23)c(Cl)c1 [compound No. 82, 7-(3-chloro-5-(trifluoromethyl)pyridin-2-yl)-5-cyclopropyl-[1,2,4]triazolo[1,5-a]pyrimidine]
pest or weed control at 200 ppm [2]: ≥ 80%
mortality at 200 ppm [1, 4]: ≥ 90%
mortality at 200 ppm [3]: ≥ 90%

Cc1cc(-c2ncc(C(F)(F)F)cc2[N+](=O)[O-])n2ncnc2n1 [compound 78]
mortality at 200 ppm [3]: ≥ 90%

Cc1cc(-c2ncc(C(F)(F)F)cc2Cl)n2ncnc2n1 [compound No. 19, 7-(3-chloro-5-(trifluoromethyl)pyridin-2-yl)-5-methyl-[1,2,4]triazolo[1,5-a]pyrimidine]
pest or weed control at 200 ppm [2]: ≥ 80%
mortality at 200 ppm [1, 4]: ≥ 90%
mortality at 200 ppm [3]: ≥ 90%

CC(C)(C)c1cc(-c2ncc(C(F)(F)F)cc2Cl)n2ncnc2n1 [compound 89]
mortality at 200 ppm [1, 4]: ≥ 90%

Cc1cc(-c2cc(C(F)(F)F)cc(C(F)(F)F)n2)n2ncnc2n1 [compound 51]
mortality at 200 ppm [3]: ≥ 90%

N#Cc1cc(-c2ncc(C(F)(F)F)cc2Cl)n2ncnc2n1 [compound 70]
mortality at 200 ppm [1, 4]: ≥ 90%

FC(F)(F)c1cnc(-c2cc(C3CC3)nc3ncnn23)c(Br)c1 [compound 94]
pest or weed control at 200 ppm [2]: ≥ 80%
mortality at 200 ppm [1, 4]: ≥ 90%
mortality at 200 ppm [3]: ≥ 90%

FC(F)(F)c1cnc(-c2ccnc3ncnn23)c(Br)c1 [compound No. 4, 7-(3-bromo-5-(trifluoromethyl)pyridin-2-yl)-[1,2,4]triazolo[1,5-a]pyrimidine]
pest or weed control at 200 ppm [2]: ≥ 80%
mortality at 200 ppm [1, 4]: ≥ 90%
mortality at 200 ppm [3]: ≥ 90%

CC(C)c1cc(-c2ncc(C(F)(F)F)cc2Cl)n2ncnc2n1 [compound 80]
pest or weed control at 200 ppm [2]: ≥ 80%
mortality at 200 ppm [1, 4]: ≥ 90%
mortality at 200 ppm [3]: ≥ 90%

CCCCc1cc(-c2ncc(C(F)(F)F)cc2Cl)n2ncnc2n1 [compound 83]
mortality at 200 ppm [1, 4]: ≥ 90%

CC1(c2cc(-c3ncc(C(F)(F)F)cc3Cl)n3ncnc3n2)CC1 [compound 98]
mortality at 200 ppm [1, 4]: ≥ 90%

CCc1cc(-c2ncc(C(F)(F)F)cc2Cl)n2ncnc2n1 [compound No. 16, 7-(3-chloro-5-(trifluoromethyl)pyridin-2-yl)-5-ethyl-[1,2,4]triazolo[1,5-a]pyrimidine]
pest or weed control at 200 ppm [2]: ≥ 80%
mortality at 200 ppm [1, 4]: ≥ 90%
mortality at 200 ppm [3]: ≥ 90%

Cc1cc(-c2ncc(C(F)(F)F)cc2Br)n2ncnc2n1 [compound 15]
pest or weed control at 200 ppm [2]: ≥ 80%
mortality at 200 ppm [1, 4]: ≥ 90%
mortality at 200 ppm [3]: ≥ 90%

Cc1cc(-c2ncc(C(F)(F)F)cc2C#N)n2ncnc2n1 [compound 43]
mortality at 200 ppm [1, 4]: ≥ 90%
mortality at 200 ppm [3]: ≥ 90%

FC(F)(F)c1cnc(-c2cc(-c3ccco3)nc3ncnn23)c(Cl)c1 [compound 91]
mortality at 200 ppm [1]: ≥ 90%

Cc1cc(-c2ncc(Cl)cc2C(F)(F)F)n2ncnc2n1 [compound 57]
mortality at 200 ppm [1, 4]: ≥ 90%

CCCc1cc(-c2ncc(C(F)(F)F)cc2Cl)n2ncnc2n1 [compound 17]
pest or weed control at 200 ppm [2]: ≥ 80%
mortality at 200 ppm [1, 4]: ≥ 90%
mortality at 200 ppm [3]: ≥ 90%

Cc1cc(-c2ccc(C(F)(F)F)cn2)n2ncnc2n1 [compound 18]
pest or weed control at 200 ppm [2]: ≥ 80%
mortality at 200 ppm [3]: ≥ 90%

Cc1cc(-c2nc(Cl)c(C(F)(F)F)cc2Cl)n2ncnc2n1 [compound 68]
mortality at 200 ppm [1, 4]: ≥ 90%
mortality at 200 ppm [3]: ≥ 90%

CCc1cc(C(F)(F)F)cnc1-c1cc(C)nc2ncnn12 [compound 79]
mortality at 200 ppm [1, 4]: ≥ 90%
mortality at 200 ppm [3]: ≥ 90%

Fc1cc(C(F)(F)F)cnc1-c1ccnc2ncnn12 [compound 5]
pest or weed control at 200 ppm [2]: ≥ 80%

N#Cc1cc(C(F)(F)F)cnc1-c1ccnc2ncnn12 [compound 14]
pest or weed control at 200 ppm [2]: ≥ 80%

Cc1cc(-c2ncc(C(F)(F)F)cc2I)n2ncnc2n1 [compound 41]
mortality at 200 ppm [1, 4]: ≥ 90%
mortality at 200 ppm [3]: ≥ 90%

CC(C)c1cc(-c2ncc(C(F)(F)F)cc2Br)n2ncnc2n1 [compound No. 95, 7-(3-bromo-5-(trifluoromethyl)pyridin-2-yl)-5-isopropyl-[1,2,4]triazolo[1,5-a]pyrimidine]
mortality at 200 ppm [1, 4]: ≥ 90%
mortality at 200 ppm [3]: ≥ 90%

O=[N+]([O-])c1cc(C(F)(F)F)cnc1-c1ccnc2ncnn12 [compound 12]
pest or weed control at 200 ppm [2]: ≥ 80%
mortality at 200 ppm [1, 4]: ≥ 90%

FC(F)(F)c1cnc(-c2cc(C3CCCC3)nc3ncnn23)c(Cl)c1 [compound 107]
mortality at 200 ppm [1, 4]: ≥ 90%

Cc1cc(-c2ncc(C(F)(F)F)cc2-c2ccccc2)n2ncnc2n1 [compound 52]
mortality at 200 ppm [1, 4]: ≥ 90%

FC(F)(F)c1cnc(-c2cc(C3CCC3)nc3ncnn23)c(Cl)c1 [compound 99]
mortality at 200 ppm [1, 4]: ≥ 90%

FC(F)(F)c1cnc(-c2cc(C(F)(F)F)nc3ncnn23)c(Cl)c1 [compound No. 20, 7-(3-chloro-5-(trifluoromethyl)pyridin-2-yl)5-(trifluoromethyl)-[1,2,4]triazolo[1,5-a]pyrimidine]
pest or weed control at 200 ppm [2]: ≥ 80%
mortality at 200 ppm [1, 4]: ≥ 90%
mortality at 200 ppm [3]: ≥ 90%

Cc1cc(-c2ncc(C(F)(F)F)cc2C)n2ncnc2n1 [compound 44]
pest or weed control at 200 ppm [2]: ≥ 80%
mortality at 200 ppm [1, 4]: ≥ 90%
mortality at 200 ppm [3]: ≥ 90%
